# Test results taken from BindingDB's records for doi:10.1016/0968-0896(96)00075-2 (Sapienza University of Rome, 1996).
# Target: T1, Gag-Pol polyprotein [588-1027]/[588-1147] (Human immunodeficiency virus 1, UniProt P04585)
# T1 construct: 588-1027; 588-1147
# Experiment: HIV-1 RT Assay
# Conditions: pH 7.8; 37 °C
row,SMILES,IC50
1,"O=C1Nc2ccccc2S(=O)(=O)n2cccc21 [2-thia-3,9-diazatricyclo[8.4.0.0^{3,7}]tetradeca-1(10),4,6,11,13-pentaene-2,2,8-trione]",4 µM
2,"O=C1Nc2ccccc2Sn2cccc21 [5H-Pyrrolo [1,2-b] [1,2,5] benzothiadiazepin-11 (10H) -one]",> 100 µM
3,"Cn1c2ccccc2n2c(c3cccn31)=C(O)N(CCN1CCOCC1)CC2=O [7-methyl-17-[2-(morpholin-4-yl)ethyl]-6,7,14,17-tetraazatetracyclo[12.4.0.0^{2,6}.0^{8,13}]octadeca-2,4,8(13),9,11-pentaene-15,18-dione]",6.3 µM
4,"Cn1c2ccccc2n2c(c3cccn31)=C(O)N(CCN1CCCCC1)CC2=O [7-methyl-17-[2-(piperidin-1-yl)ethyl]-6,7,14,17-tetraazatetracyclo[12.4.0.0^{2,6}.0^{8,13}]octadeca-2,4,8(13),9,11-pentaene-15,18-dione]",> 100 µM
5,"C=CCN1C(=O)c2cccn2S(=O)(=O)c2ccccc21 [9-(prop-2-en-1-yl)-2-thia-3,9-diazatricyclo[8.4.0.0^{3,7}]tetradeca-1(10),4,6,11,13-pentaene-2,2,8-trione]",9.5 µM
6,"CC(C)N1C(=O)c2cccn2S(=O)(=O)c2ccccc21 [9-(propan-2-yl)-2-thia-3,9-diazatricyclo[8.4.0.0^{3,7}]tetradeca-1(10),4,6,11,13-pentaene-2,2,8-trione]",6.3 µM
7,"C/C=C/CN1C(=O)c2cccn2S(=O)(=O)c2ccccc21 [9-[(2E)-but-2-en-1-yl]-2-thia-3,9-diazatricyclo[8.4.0.0^{3,7}]tetradeca-1(10),4,6,11,13-pentaene-2,2,8-trione]",21 µM
8,"C/C=C\CN1C(=O)c2cccn2S(=O)(=O)c2cc(Cl)ccc21 [9-[(2Z)-but-2-en-1-yl]-13-chloro-2-thia-3,9-diazatricyclo[8.4.0.0^{3,7}]tetradeca-1(10),4,6,11,13-pentaene-2,2,8-trione]",3.1 µM
9,"CCN1C(=O)c2cccn2S(=O)(=O)c2ccccc21 [9-ethyl-2-thia-3,9-diazatricyclo[8.4.0.0^{3,7}]tetradeca-1(10),4,6,11,13-pentaene-2,2,8-trione]",10 µM
10,"CCCN1C(=O)c2cccn2S(=O)(=O)c2ccccc21 [9-propyl-2-thia-3,9-diazatricyclo[8.4.0.0^{3,7}]tetradeca-1(10),4,6,11,13-pentaene-2,2,8-trione]",24 µM
11,"CN1C(=O)c2cccn2S(=O)(=O)c2ccccc21 [10-methyi-5H-pyrrolo1,2-b] [1,2,5] benzothiadiazepin-11(10H)-one-5,5-dioxide]",11 µM
12,"O=C1Nc2ccc(Cl)cc2S(=O)(=O)n2cccc21 [13-chloro-2-thia-3,9-diazatricyclo[8.4.0.0^{3,7}]tetradeca-1(10),4,6,11,13-pentaene-2,2,8-trione]",0.7 µM
13,"C=CCN1C(=O)c2cccn2S(=O)(=O)c2cc(Cl)ccc21 [13-chloro-9-(prop-2-en-1-yl)-2-thia-3,9-diazatricyclo[8.4.0.0^{3,7}]tetradeca-1(10),4,6,11,13-pentaene-2,2,8-trione]",2.9 µM
14,"CCN1C(=O)c2cccn2S(=O)(=O)c2cc(Cl)ccc21 [13-chloro-9-ethyl-2-thia-3,9-diazatricyclo[8.4.0.0^{3,7}]tetradeca-1(10),4,6,11,13-pentaene-2,2,8-trione]",2.7 µM
15,"CN1C(=O)c2cccn2S(=O)(=O)c2cc(Cl)ccc21 [13-chloro-9-methyl-2-thia-3,9-diazatricyclo[8.4.0.0^{3,7}]tetradeca-1(10),4,6,11,13-pentaene-2,2,8-trione]",0.5 µM
16,"CN(C)CCCN1CC(=O)n2c(c3cccn3n(C)c3ccccc32)=C1O [17-[3-(dimethylamino)propyl]-7-methyl-6,7,14,17-tetraazatetracyclo[12.4.0.0^{2,6}.0^{8,13}]octadeca-2,4,8(13),9,11-pentaene-15,18-dione]",24 µM
17,"CCOC(=O)CN1C(=O)c2cccn2S(=O)(=O)c2ccccc21 [ethyl 2-(2,2,8-trioxo-2-thia-3,9-diazatricyclo[8.4.0.0^{3,7}]tetradeca-1(10),4,6,11,13-pentaen-9-yl)acetate]",31 µM
